# Test results: paper PMC4850510 (ACS Central Science, 2016)
# Tests used:
# GABA AT = GABA AT (Rattus norvegicus, UniProt P50554); assay: GABA transaminase; type: biochemical
# CBS = conditions: read-out: IC50 for CBS; cited from earlier work
# GABA AT, sequence (P50554 28-500): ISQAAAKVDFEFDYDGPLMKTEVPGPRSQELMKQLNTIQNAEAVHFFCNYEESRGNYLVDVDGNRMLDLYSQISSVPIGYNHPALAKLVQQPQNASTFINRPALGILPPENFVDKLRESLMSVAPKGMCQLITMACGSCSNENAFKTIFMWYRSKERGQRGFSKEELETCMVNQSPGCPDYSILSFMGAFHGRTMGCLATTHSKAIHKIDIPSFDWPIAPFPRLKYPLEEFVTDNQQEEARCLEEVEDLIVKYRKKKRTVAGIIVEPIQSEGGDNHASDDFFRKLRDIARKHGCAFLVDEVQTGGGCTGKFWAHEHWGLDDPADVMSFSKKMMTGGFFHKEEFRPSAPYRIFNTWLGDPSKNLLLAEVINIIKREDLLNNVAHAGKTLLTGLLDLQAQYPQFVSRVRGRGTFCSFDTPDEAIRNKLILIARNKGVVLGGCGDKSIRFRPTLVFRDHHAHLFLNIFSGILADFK
smiles,measurement,setting,value
"NOCC(=O)O [AOAA, aminooxyacetic acid]",fold better inhibitor of GABA AT than of CBS,GABA AT; IC50 GABA AT vs IC50 CBS,33 fold
same,IC50,"GABA AT; read-out: IC50 for GABA AT, rat brain homogenate",~360 nM
same,IC50,CBS,~12 µM
